Data from patent EP4725941A1, “ARYLAMIDE DERIVATIVE HAVING ANTITUMOR ACTIVITY” (priority 2020, dated 2021).
Like-named read-outs stand apart in the source and are kept apart here.

Key:
[1] = molecular target: T1, MEK1 (Homo sapiens, UniProt Q02750); experiment: MEK1-inhibiting activity, fluorescent polarization method (CRAF/MEK1/ERK2 cascade, IMAP); format: biochemical; details: Table 3; read-out: MEK1 IC50
T1 construct: purchased Thermo Fisher Scientific Inc. (MEK1, CRAF); Carna Biosciences, Inc. (ERK2)
T1 sequence (Q02750 whole entry): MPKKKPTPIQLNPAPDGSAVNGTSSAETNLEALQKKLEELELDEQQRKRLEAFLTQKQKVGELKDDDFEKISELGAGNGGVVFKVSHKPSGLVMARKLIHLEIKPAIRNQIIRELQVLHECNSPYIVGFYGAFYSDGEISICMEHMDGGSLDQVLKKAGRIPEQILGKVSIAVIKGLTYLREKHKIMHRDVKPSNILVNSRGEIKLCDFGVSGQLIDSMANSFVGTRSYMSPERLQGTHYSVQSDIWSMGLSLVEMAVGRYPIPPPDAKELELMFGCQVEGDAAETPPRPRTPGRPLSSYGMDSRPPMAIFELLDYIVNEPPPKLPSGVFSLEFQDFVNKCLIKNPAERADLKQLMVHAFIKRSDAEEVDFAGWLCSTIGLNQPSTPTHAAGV
Description: The MEK1-inhibiting activity of the compounds listed in Table 3 below were evaluated by the fluorescent polarization method as described below.

[2] = molecular target: T2, BRAF (Homo sapiens, UniProt P15056); experiment: BRAF-inhibiting activity, time-resolved fluorescence-fluorescence resonance energy transfer assay; format: biochemical
T2 construct: purchased Eurofins Genomics KK; (BRAF); Thermo Fisher Scientific Inc. (MEK1)
T2 sequence (P15056 417-766 limits assumed): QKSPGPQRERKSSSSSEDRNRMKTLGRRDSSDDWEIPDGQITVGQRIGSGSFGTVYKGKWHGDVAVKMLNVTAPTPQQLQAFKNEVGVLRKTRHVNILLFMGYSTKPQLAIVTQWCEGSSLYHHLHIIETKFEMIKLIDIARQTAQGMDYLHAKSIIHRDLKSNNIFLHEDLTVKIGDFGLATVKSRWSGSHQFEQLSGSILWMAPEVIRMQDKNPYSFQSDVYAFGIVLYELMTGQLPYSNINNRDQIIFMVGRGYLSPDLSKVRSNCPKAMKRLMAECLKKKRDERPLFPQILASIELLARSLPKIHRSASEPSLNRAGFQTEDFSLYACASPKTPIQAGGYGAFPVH
Description: The BRAF-inhibiting activity of the compounds listed in Table 3 below was evaluated by the time-resolved fluorescence-fluorescence resonance energy transfer assay as described below.

[3] = Human liver microsome stability; format: in vitro ADME; details: human liver microsomes, pH 7.4
[4] = system: NCI-H2122; experiment: Cell proliferation-inhibiting activity (ATP in viable cells, CellTiter-Glo), NCI-H2122; format: cell-based, human; details: human lung cancer cells, 4 days, read-out: NCI-H2122 IC50
[5] = system: A549; experiment: Cell proliferation-inhibiting activity (ATP in viable cells, CellTiter-Glo), A549; format: cell-based, human; details: human lung cancer cells, 4 days, read-out: A549 IC50

Structure (SMILES)	IC50 [1] [nM]	IC50 ([2]; read-out: BRAF IC50; Table 3) [nM]	microsomal CLint at 0.99 µM [3] [µL/min/mg]	IC50 ([4]; NCI-H2122, 96 h) [nM]	IC50 ([5]; A549, 96 h) [nM]	IC50 ([2]; Table 3; read-out: BRAF IC50) [nM]	IC50 [5] [nM]	IC50 [4] [nM]
CNS(=O)(=O)Nc1nccc(Cc2cc(C(=O)NC3CC3)c(Nc3ccc(I)cc3F)c(F)c2F)c1F [Compound A-2, N-cyclopropyl-3,4-difluoro-2-(2-fluoro-4-iodoanilino)-5-[[3-fluoro-2-(methylsulfamoylamino)pyridin-4-yl]methyl]benzamide]	5	3	25					
Cn1c(Nc2ccc(I)cc2F)c(C(N)=O)cc(Cc2ccnc(NS(=O)(=O)NC3(C)CCC3)c2F)c1=O [Compound J-15, 2-(2-Fluoro-4-iodoanilino)-5-[[3-fluoro-2-[(1-methylcyclobutyl)sulfamoylamino]pyridin-4-yl]methyl]-1-methyl-6-oxopyridine-3-carboxamide]	56	12	225	46				
CCS(=O)(=O)Nc1cc(Cc2cc(C(N)=O)c(Nc3ccc(I)cc3F)n(C)c2=O)ccn1 [Compound J-12, 5-[[2-(Ethylsulfonylamino)pyridin-4-yl]methyl]-2-(2-fluoro-4-iodoanilino)-1-methyl-6-oxopyridine-3-carboxamide]	2290		19	180				
COCCNS(=O)(=O)Nc1nccc(Cc2cc(C(=O)NOC)c(Nc3ccc(I)cc3F)n(C)c2=O)c1F [Compound J-9, 2-(2-Fluoro-4-iodoanilino)-5-[[3-fluoro-2-(2-methoxyethylsulfamoylamino)pyridin-4-yl]methyl]-N-methoxy-1-methyl-6-oxopyridine-3-carbox amide]	64	3	23	17				
CC1(NS(=O)(=O)Nc2cccc(Cc3cc(C(=O)NC4CC4)c(Nc4ccc(I)cc4F)c(F)c3F)c2F)CCC1 [Compound D-10, N-Cyclopropyl-3,4-difluoro-2-(2-fluoro-4-iodoanilino)-5-[[2-fluoro-3-[(1-methylcyclobutyl)sulfamoylamino]phenyl]methyl]benzamide]	261	34	107	28				
Cn1c(Nc2ccc(I)cc2F)c(C(N)=O)cc(Cc2ccnc(NS(=O)(=O)NC3CC3)c2F)c1=O [Compound J-13, 5-[[2-(Cyclopropylsulfamoylamino)-3-fluoropyridin-4-yl]methyl]-2-(2-fluoro-4-iodoanilino)-1-methyl-6-oxopyridine-3-carboxamide]	29	4	39	80				
CCS(=O)(=O)Nc1nccc(Cn2cc(C(N)=O)c(Nc3ccc(I)cc3F)c(C)c2=O)c1F [Compound P-2, 1-[[2-(Ethylsulfonylamino)-3-fluoropyridin-4-yl]methyl]-4-(2-fluoro-4-iodoanilino)-5-methyl-6-oxopyridine-3-carboxamide]	8		3					
COCCNS(=O)(=O)Nc1nccc(Cc2cc(C(N)=O)c(Nc3ccc(I)cc3F)n(C)c2=O)c1F [Compound J-2, 2-(2-Fluoro-4-iodoanilino)-5-[[3-fluoro-2-(2-methoxyethylsulfamoylamino)pyridin-4-yl]methyl]-1-methyl-6-oxopyridine-3-carboxamide]	495	11	16	130				
CCS(=O)(=O)Nc1nccc(Cn2cc(C(=O)NOC)c(Nc3ccc(I)cc3F)c(C)c2=O)c1F [Compound P-5]	11	11	2	31				
CCNS(=O)(=O)Nc1nccc(Cc2cc(C(N)=O)c(Nc3ccc(I)cc3F)n(C)c2=O)c1F [Compound J-14, 5-[[2-(ethylsulfamoylamino)-3-fluoropyridin-4-yl]methyl]-2-(2-fluoro-4-iodoanilino)-1-methyl-6-oxopyridine-3-carboxamide]	22	3	34	37				
O=C(NOC[C@H](O)CO)c1ccc(F)c(F)c1Nc1ccc(I)cc1F [Ref-1, N-[(2R)-2,3-Dihydroxypropoxy]-3,4-difluoro-2-(2-fluoro-4-iodoanilino)benzamide, reference compound]			20					
CCCNS(=O)(=O)Nc1nccc(Cc2cc(C(=O)NOCCO)c(Nc3ccc(I)cc3F)c(F)c2F)c1F [Compound A-45, 3,4-Difluoro-2-(2-fluoro-4-iodoanilino)-5-[[3-fluoro-2-(propylsulfamoylamino)pyridin-4-yl]methyl]-N-(2-hydroxyethoxy)benzamide]	2	6		1	5			
CCNS(=O)(=O)Nc1nccc(Cc2cc(C(=O)NOCCO)c(Nc3ccc(I)cc3F)c(F)c2F)c1F [Compound A-44, 5-[[2-(Ethylsulfamoylamino)-3-fluoropyridin-4-yl]methyl]-3,4-difluoro-2-(2-fluoro-4-iodoanilino)-N-(2-hydroxyethoxy)benzamide]	2			1		19		
CNS(=O)(=O)Nc1nccc(Cc2cc(C(=O)NC3CC3)c(Nc3ccc(C4CC4)cc3F)c(F)c2F)c1F [Compound G-1, N-Cyclopropyl-2-(4-cyclopropyl-2-fluoroanilino)-3,4-difluoro-5-[[3-fluoro-2-(methylsulfamoylamino)pyridin-4-yl]methyl]benzamide]	222	12	32					
COCC1(NS(=O)(=O)Nc2nccc(Cc3cc(C(N)=O)c(Nc4ccc(I)cc4F)c(F)c3F)c2F)CC1 [Compound A-16]	8					3	14	3
CCS(=O)(=O)Nc1nccc(Cc2cc(C(=O)NC3CC3)c(Nc3ccc(C4CC4)cc3F)c(F)c2F)c1F [Compound G-7, N-Cyclopropyl-2-(4-cyclopropyl-2-fluoroanilino)-5-[[2-(ethylsulfonylamino)-3-fluoropyridin-4-yl]methyl]-3,4-difluorobenzamide]	2470	46	21	75				
NC(=O)c1cc(Cc2ccnc(NS(=O)(=O)NC3C4COCC43)c2F)c(F)c(F)c1Nc1ccc(I)cc1F (stereo not drawn) [Compound A-22, 3,4-Difluoro-2-(2-fluoro-4-iodoanilino)-5-[[3-fluoro-2-(3-oxabicyclo[3. 1.0]hexan-6-ylsulfamoylamino)pyridin-4-yl]methyl]benzamide]	6					2	31	10
CCCNS(=O)(=O)Nc1nccc(Cn2cc(C(N)=O)c(Nc3ccc(I)cc3F)c(F)c2=O)c1F [Compound N-2, 5-Fluoro-4-(2-fluoro-4-iodoanilino)-1-[[3-fluoro-2-(propylsulfamoylamino)pyridin-4-yl]methyl]-6-oxopyridine-3-carboxamide]	1	1	11	60				
NC(=O)c1cc(Cc2ccnc(NS(=O)(=O)NC3CC3)c2F)c(F)cc1Nc1ccc(I)cc1F [Compound I-3, 5-[[2-(Cyclopropylsulfamoylamino)-3-fluoropyridin-4-yl]methyl]-4-flu oro-2-(2-fluoro-4-iodoanilino)benzamide]	55	2	16					
CC1(NS(=O)(=O)Nc2nccc(Cc3cc(C(=O)NC4CC4)c(Nc4ccc(I)cc4F)c(F)c3F)c2F)CCC1 [Compound A-47, N-Cyclopropyl-3,4-difluoro-2-(2-fluoro-4-iodoanilino)-5-[[3-fluoro-2-[(1-methylcyclobutyl)sulfamoylamino]pyridin-4-yl]methyl]benzamide]	39	21	38	17				
COCCNS(=O)(=O)Nc1nccc(Cc2cc(C(N)=O)c(Nc3ccc(I)cc3F)cc2F)c1F [Compound I-4, 4-Fluoro-2-(2-fluoro-4-iodoanilino)-5-[[3-fluoro-2-(2-methoxyethylsulfamoylamino)pyridin-4-yl]methyl]benzamide]	275	4	25	83				
CNS(=O)(=O)Nc1nccc(Cc2cc(C(N)=O)c(Nc3ccc(C4CC4)cc3F)n(C)c2=O)c1F [Compound J-3, 2-(4-Cyclopropyl-2-fluoroanilino)-5-[[3-fluoro-2-(methylsulfamoylamino)pyridin-4-yl]methyl]-1-methyl-6-oxopyridine-3-carboxamide]	308	11	23					
CNS(=O)(=O)Nc1cccc(Cc2cc(C(=O)NC3CC3)c(Nc3ccc(C4CC4)cc3F)c(F)c2F)c1F [Compound D-15, N-Cyclopropyl-2-(4-cyclopropyl-2-fluoroanilino)-3,4-difluoro-5-[[2-fluoro-3-(methylsulfamoylamino)phenyl]methyl]benzamide]	1240	17	91					
Cc1c(Nc2ccc(I)cc2F)c(C(N)=O)cn(Cc2ccnc(NS(=O)(=O)NC3(C)CCC3)c2F)c1=O [Compound P-3, 4-(2-Fluoro-4-iodoanilino)-1-[[3-fluoro-2-[(1-methylcyclobutyl)sulfamoylamino]pyridin-4-yl]methyl]-5-methyl-6-oxopyridine-3-carboxamide]	3	10	37	96				
